Active and inactive are the calls of the source. The rule behind the calls is not given here.
Assays:
[1] = Cytotoxicity against human U937 cells after 72 hrs by MTT assay; type: cell-based, U-937; conditions: read-out: LC50
Leishmania braziliensis [2] = test: Antileishmanial activity against Leishmania (Viannia) braziliensis HMOM/COL/88/UA301-EGFP intracellular amastigotes infected in human U937 cells after 72 hrs by flow cytometric analysis; type: functional, organism-based; conditions: HMOM/COL/88/UA301, U-937, 72 h
[3] = Selectivity index, ratio of LC50 for human U937 cells to EC50 for Leishmania (Viannia) braziliensis HMOM/COL/88/UA301-EGFP intracellular amastigotes infected in human U937 cells; type: toxicity, cell-based; conditions: read-out: Selectivity Index
Syrian golden hamster [4] = test: Antiinflammatory activity in golden hamster infected with Leishmania (Viannia) braziliensis HMOM/COL/88/UA301-EGFP assessed as migration of plasmocytes in skin at 200 ug administered intralesionally twice per week for 4 weeks measured 3 months post last dose by histopathological analysis; type: functional, organism-based; conditions: Mesocricetus auratus
Syrian golden hamster [5] = test: Antiinflammatory activity in golden hamster infected with Leishmania (Viannia) braziliensis HMOM/COL/88/UA301-EGFP assessed as re-epithelialization in skin at 200 ug administered intralesionally twice per week for 4 weeks measured 3 months post last dose by histopathological analysis; type: functional, organism-based; conditions: Mesocricetus auratus
Leishmania braziliensis [6] = test: Antileishmanial activity against Leishmania (Viannia) braziliensis HMOM/COL/88/UA301-EGFP infected in golden hamster assessed as cure rate at 200 ug administered intralesionally twice per week for 4 weeks measured 3 months post last dose relative to control; type: functional, organism-based
Leishmania braziliensis [7] = test: Antileishmanial activity against Leishmania (Viannia) braziliensis HMOM/COL/88/UA301-EGFP infected in golden hamster assessed as clinical failure at 200 ug administered intralesionally twice per week for 4 weeks measured 3 months post last dose relative to control; type: functional, organism-based
Syrian golden hamster [8] = test: Antiinflammatory activity in golden hamster infected with Leishmania (Viannia) braziliensis HMOM/COL/88/UA301-EGFP assessed as migration of macrophages in skin at 200 ug administered intralesionally twice per week for 4 weeks measured 3 months post last dose by histopathological analysis; type: functional, organism-based; conditions: Mesocricetus auratus
Leishmania braziliensis [9] = test: Antileishmanial activity against Leishmania (Viannia) braziliensis HMOM/COL/88/UA301-EGFP infected in golden hamster assessed as clinical improvement at 200 ug administered intralesionally twice per week for 4 weeks measured 3 months post last dose relative to control; type: functional, organism-based
Leishmania braziliensis [10] = test: Antileishmanial activity against Leishmania (Viannia) braziliensis HMOM/COL/88/UA301-EGFP infected in golden hamster assessed as relapse at 200 ug administered intralesionally twice per week for 4 weeks measured 3 months post last dose relative to control; type: functional, organism-based
Syrian golden hamster [11] = test: Antiinflammatory activity in golden hamster infected with Leishmania (Viannia) braziliensis HMOM/COL/88/UA301-EGFP assessed as migration of lymphocytes in skin at 200 ug administered intralesionally twice per week for 4 weeks measured 3 months post last dose by histopathological analysis; type: functional, organism-based; conditions: Mesocricetus auratus
[12] = Hepatotoxicity in golden hamster infected with Leishmania (Viannia) braziliensis HMOM/COL/88/UA301-EGFP assessed as vacuolar degeneration at 0.81% to 1.96% administered topically as cream formulation for 20 days measured 90 days post last dose by histopathological analysis; type: toxicity, Mesocricetus auratus; conditions: in vivo, topical_or_ocular, 2160 h
Leishmania braziliensis [13] = test: Antileishmanial activity against Leishmania (Viannia) braziliensis HMOM/COL/88/UA301-EGFP infected in golden hamster assessed as clinical failure at 1.96% administered topically as cream formulation for 20 days measured 3 months post last dose relative to control; type: functional
Leishmania braziliensis [14] = test: Antileishmanial activity against Leishmania (Viannia) braziliensis HMOM/COL/88/UA301-EGFP infected in golden hamster assessed as relapse at 1.96% administered topically as cream formulation for 20 days measured 3 months post last dose relative to control; type: functional
[15] = Hepatotoxicity in golden hamster infected with Leishmania (Viannia) braziliensis HMOM/COL/88/UA301-EGFP assessed as infiltration of macrophages at 0.81% to 1.96% administered topically as cream formulation for 20 days measured 90 days post last dose by histopathological analysis; type: toxicity, Mesocricetus auratus; conditions: in vivo, topical_or_ocular, 2160 h
Leishmania braziliensis [16] = test: Antileishmanial activity against Leishmania (Viannia) braziliensis HMOM/COL/88/UA301-EGFP infected in golden hamster assessed as parasitic load per milligram of tissue at 0.81 to 1.96% administered topically as cream formulation for 20 days measured 3 months post last dose by RT-PCR analysis; type: functional
[17] = Hepatotoxicity in golden hamster infected with Leishmania (Viannia) braziliensis HMOM/COL/88/UA301-EGFP assessed as hemosiderin pigmentation at 0.81% to 1.96% administered topically as cream formulation for 20 days measured 90 days post last dose by histopathological analysis; type: toxicity, Mesocricetus auratus; conditions: in vivo, topical_or_ocular, 2160 h
Leishmania braziliensis [18] = test: Antileishmanial activity against Leishmania (Viannia) braziliensis HMOM/COL/88/UA301-EGFP infected in golden hamster assessed as clinical improvement at 1.96% administered topically as cream formulation for 20 days measured 3 months post last dose relative to control; type: functional
Syrian golden hamster [19] = test: (§1) Antiinflammatory activity in golden hamster infected with Leishmania (Viannia) braziliensis HMOM/COL/88/UA301-EGFP assessed as migration of plasmocytes in skin at 0.81% to 1.96% administered topically as cream formulation for 20 days and measured 3 months post last treatment by histopathological analysis; type: functional, organism-based; conditions: Mesocricetus auratus
[20] = Renal toxicity in golden hamster infected with Leishmania (Viannia) braziliensis HMOM/COL/88/UA301-EGFP assessed as vacuolar degeneration at 0.81% to 1.96% administered topically as cream formulation for 20 days measured 90 days post last dose by histopathological analysis; parameters: species or system Mesocricetus auratus; conditions: in vivo, topical_or_ocular, 2160 h
[21] = Hepatotoxicity in golden hamster infected with Leishmania (Viannia) braziliensis HMOM/COL/88/UA301-EGFP assessed as infiltration of lymphocytes at 0.81% to 1.96% administered topically as cream formulation for 20 days measured 90 days post last dose by histopathological analysis; type: toxicity, Mesocricetus auratus; conditions: in vivo, topical_or_ocular, 2160 h
[22] = Toxicity in golden hamster infected with Leishmania (Viannia) braziliensis HMOM/COL/88/UA301-EGFP assessed as effect on serum BUN level at 0.81% to 1.96% administered topically as cream formulation for 20 days and measured day 8 post last treatment; parameters: species or system Mesocricetus auratus; conditions: in vivo, topical_or_ocular, 480 h
[23] = Toxicity in golden hamster infected with Leishmania (Viannia) braziliensis HMOM/COL/88/UA301-EGFP assessed as change in body weight at 0.81% to 1.96% administered topically as cream formulation for 20 days measured up to 90 days post last dose; parameters: species or system Mesocricetus auratus; conditions: in vivo, topical_or_ocular
[24] = Toxicity in golden hamster infected with Leishmania (Viannia) braziliensis HMOM/COL/88/UA301-EGFP assessed as effect on serum alanine aminotransferase level at 0.81% to 1.96% administered topically as cream formulation for 20 days and measured day 8 post last treatment; parameters: species or system Mesocricetus auratus; conditions: in vivo, topical_or_ocular, 480 h
Leishmania braziliensis [25] = test: Antileishmanial activity against Leishmania (Viannia) braziliensis HMOM/COL/88/UA301-EGFP infected in golden hamster assessed as clinical failure at 0.81% administered topically as cream formulation for 20 days measured 3 months post last dose relative to control; type: functional
Leishmania braziliensis [26] = test: Antileishmanial activity against Leishmania (Viannia) braziliensis HMOM/COL/88/UA301-EGFP infected in golden hamster assessed as relapse at 0.81% administered topically as cream formulation for 20 days measured 3 months post last dose relative to control; type: functional
[27] = Toxicity in golden hamster infected with Leishmania (Viannia) braziliensis HMOM/COL/88/UA301-EGFP assessed as effect on serum creatinine level at 0.81% to 1.96% administered topically as cream formulation for 20 days and measured day 8 post last treatment; parameters: species or system Mesocricetus auratus; conditions: in vivo, topical_or_ocular, 480 h
[28] = Hepatotoxicity in golden hamster infected with Leishmania (Viannia) braziliensis HMOM/COL/88/UA301-EGFP assessed as congestion at 0.81% to 1.96% administered topically as cream formulation for 20 days measured 90 days post last dose by histopathological analysis; type: toxicity, Mesocricetus auratus; conditions: in vivo, topical_or_ocular, 2160 h
Syrian golden hamster [29] = test: as §1, with “lymphocytes” for “plasmocytes”; type: functional, organism-based; conditions: Mesocricetus auratus
Leishmania braziliensis [30] = test: Antileishmanial activity against Leishmania (Viannia) braziliensis HMOM/COL/88/UA301-EGFP infected in golden hamster assessed as clinical improvement at 0.81% administered topically as cream formulation for 20 days measured 3 months post last dose relative to control; type: functional
Leishmania braziliensis [31] = test: Antileishmanial activity against Leishmania (Viannia) braziliensis HMOM/COL/88/UA301-EGFP infected in golden hamster assessed as cure rate at 0.81% administered topically as cream formulation for 20 days measured 3 months post last dose relative to control; type: functional
Syrian golden hamster [32] = test: as §1, with “macrophages” for “plasmocytes”; type: functional, organism-based; conditions: Mesocricetus auratus
Leishmania braziliensis [33] = test: Antileishmanial activity against Leishmania (Viannia) braziliensis HMOM/COL/88/UA301-EGFP infected in golden hamster assessed as cure rate at 1.96% administered topically as cream formulation for 20 days measured 3 months post last dose relative to control; type: functional

C[C@@H]1[C@H](O)[C@@H](C)/C=C/C=C/C=C/C=C/C=C/C=C/C=C/[C@H](O[C@@H]2O[C@H](C)[C@@H](O)[C@H](N)[C@@H]2O)C[C@@H]2O[C@](O)(C[C@@H](O)C[C@@H](O)[C@H](O)CC[C@@H](O)C[C@@H](O)CC(=O)O[C@H]1C)C[C@H](O)[C@H]2C(=O)O [AMPHOTERICIN B]
CC50 at 72 h [1]: 54.4 µM | EC50 (Leishmania braziliensis [2]): 0.8 µM | selectivity ratio [3]: 71.8

Cc1ccc(S(=O)(=O)N/N=C2/C[C@]34CC[C@H]5[C@@](C)(CCC[C@@]5(C)C(=O)O)[C@@H]3CC[C@@]2(C)C4)cc1
CC50 at 72 h [1]: 5.9 µM | EC50 (Leishmania braziliensis [2]): 2.3 µM | selectivity ratio [3]: 3.1

CCOC(=O)[C@]1(C)CCC[C@@]2(C)[C@@H]3CC=C(C)C[C@@]3(CC#N)CC[C@@H]21
CC50 at 72 h [1]: 9.1 µM | EC50 (Leishmania braziliensis [2]): 14.1 µM | selectivity ratio [3]: 0.6

C[C@]12C=C[C@@]3(CC[C@H]4[C@@](C)(CCC[C@@]4(C)C(=O)O)[C@@H]3CC1)C2 [MONOGINOIC ACID]
CC50 at 72 h [1]: 130 µM | EC50 (Leishmania braziliensis [2]): > 66 µM | selectivity ratio [3]: > 2

C[C@]12CC[C@H]3[C@]4(C)CCC[C@@](C)(CO)[C@H]4CC[C@@]3(C1)[C@H]1O[C@H]12
CC50 at 72 h [1]: 118 µM | EC50 (Leishmania braziliensis [2]): > 63 µM | selectivity ratio [3]: > 1.9

CCOC(=O)[C@]1(C)CCC[C@@]2(C)[C@@H]3CC[C@@]4(C)C[C@]3(CC[C@@H]21)CC4=O
CC50 at 72 h [1]: 51.9 µM | EC50 (Leishmania braziliensis [2]): 36.3 µM | selectivity ratio [3]: 0.86

CCOC(=O)[C@]1(C)CCC[C@@]2(C)[C@@H]3CC[C@@]4(C)C[C@]3(CC[C@@H]21)C[C@H]4O
CC50 at 72 h [1]: 28.8 µM | EC50 (Leishmania braziliensis [2]): 13.6 µM | selectivity ratio [3]: 1.4

CCOC(=O)[C@]1(C)CCC[C@@]2(C)[C@@H]3CC[C@@]4(C)C[C@]3(CC[C@@H]21)C/C4=N/O
CC50 at 72 h [1]: 15.7 µM | EC50 (Leishmania braziliensis [2]): 8.8 µM | selectivity ratio [3]: 1.8

MEGLUMINE ANTIMONATE
Activity (Syrian golden hamster [4]): Active | Activity (Syrian golden hamster [5]): Active | Activity (Leishmania braziliensis [6]): 66.7% | Activity (Leishmania braziliensis [7]): 0% | Activity (Syrian golden hamster [8]): Active | Activity (Leishmania braziliensis [9]): 16.7% | Activity (Leishmania braziliensis [10]): 16.7% | Activity (Syrian golden hamster [11]): Active

C[C@@]12CC[C@@H]3[C@@](CC[C@H]4[C@@]3(C)CCC[C@@]4(C)C(=O)O)(CC1=O)C2 [ISOSTEVIOL]
CC50 at 72 h [1]: 66.9 µM | EC50 (Leishmania braziliensis [2]): > 20 µM | selectivity ratio [3]: > 3.3

CCOC(=O)[C@]1(C)CCC[C@@]2(C)[C@@H]3CC[C@@]4(C)C[C@]3(CC[C@@H]21)C/C4=N/NS(=O)(=O)c1ccc(C)cc1
CC50 at 72 h [1]: 8.8 µM | EC50 (Leishmania braziliensis [2]): 3 µM | selectivity ratio [3]: 3.5

C[C@]12CC[C@H]3[C@]4(C)CCC[C@@](C)(C(=O)O)[C@H]4CC[C@@]3(C1)[C@H]1O[C@H]12
CC50 at 72 h [1]: 64.8 µM | EC50 (Leishmania braziliensis [2]): 43.3 µM | selectivity ratio [3]: 1.5

C[C@@]12CC[C@@H]3[C@@](CC[C@@H]4[C@](C)(CO)CCC[C@]43C)(CC1)C2
CC50 at 72 h [1]: 29.6 µM | EC50 (Leishmania braziliensis [2]): 18.1 µM | selectivity ratio [3]: 1.6

C[C@]12C=C[C@@]3(CC[C@@H]4[C@](C)(CO)CCC[C@@]4(C)[C@@H]3CC1)C2
Activity [12]: Toxic | Activity (Leishmania braziliensis [13]): 16.7% | Activity (Leishmania braziliensis [14]): 16.7% | Activity [15]: Toxic | Activity (Leishmania braziliensis [16]): <500 | Activity [17]: Toxic | CC50 at 72 h [1]: 114 µM | Activity (Leishmania braziliensis [18]): 50% | Activity (Syrian golden hamster [19]): Active | EC50 (Leishmania braziliensis [2]): 16 µM | Activity [20]: Toxic | Activity [21]: Toxic | selectivity ratio [3]: 5.1 | Activity [22]: Non-Toxic | Activity [23]: Non-Toxic | Activity [24]: Non-Toxic | Activity (Leishmania braziliensis [25]): 0% | Activity (Leishmania braziliensis [26]): 0% | Activity [27]: Non-Toxic | Activity [28]: Toxic | Activity (Syrian golden hamster [29]): Active | Activity (Leishmania braziliensis [30]): 50% | Activity (Leishmania braziliensis [31]): 50% | Activity (Syrian golden hamster [32]): Active | Activity (Leishmania braziliensis [33]): 16.7%

Reference: ChEMBL document CHEMBL4308897, “Antileishmanial activity and cytotoxicity of ent-beyerene diterpenoids” (Bioorg Med Chem, 2019)
